Laboratory results taken from DBAASP.
Converted amounts (≈) assume the structure as drawn.

Legend:
Experiment in all cases: ≥ marks a high value that may be exact or a test limit, other limits are often not marked, values filed in µg/mL are converted to µM
[1] = test system: Acinetobacter baumannii ATCC 19606
[2] = test system: Escherichia coli ATCC 25922
[3] = test system: Pseudomonas aeruginosa ATCC 27853
[4] = test system: Staphylococcus aureus ATCC 25923
[5] = test system: Candida albicans ATCC 90028
[6] = test system: Staphylococcus epidermidis ATCC 12228
[7] = test system: Candida albicans
[8] = test system: Escherichia coli
[9] = test system: Staphylococcus aureus
[10] = test system: Klebsiella pneumoniae ATCC 700603
[11] = test system: Staphylococcus aureus ATCC 29213
[12] = test system: Escherichia coli UB1005
[13] = test system: Pseudomonas aeruginosa PAO1
[14] = test system: Klebsiella pneumoniae
[15] = test system: Candida albicans ATCC 10231

MIC [2]	MIC [3]	MIC [4]	SMILES	also measured
115 µM (≈ 128 µg/mL)	7.17 µM (≈ 7.99 µg/mL)	> 115 µM	CC(C)C[C@H](NC(=O)[C@H](CC(C)C)NC(=O)[C@H](CCCCN)NC(=O)[C@H](CCCCN)NC(=O)[C@H](CC(C)C)NC(=O)[C@H](CC(N)=O)NC(=O)[C@H](CCCCN)NC(=O)[C@H](CC(C)C)NC(=O)[C@@H](N)Cc1ccccc1)C(N)=O [FLKNLKKLL]	MIC [1]: > 115 µM
20 µM (≈ 48.1 µg/mL)	–	5 µM (≈ 12 µg/mL)	CC[C@H](C)[C@H](NC(=O)CN)C(=O)NCC(=O)N[C@@H](CO)C(=O)N[C@H](C(=O)N[C@@H](CC(C)C)C(=O)NCC(=O)N[C@H](C(=O)N[C@H](C(=O)N[C@@H](C)C(=O)N[C@@H](CCCCN)C(=O)NCC(=O)N[C@@H](CC(C)C)C(=O)N1CCC[C@H]1C(=O)N[C@H](C(=O)N[C@@H](CC(C)C)C(=O)N[C@H](C(=O)N[C@@H](CO)C(=O)N[C@@H](Cc1c[nH]c2ccccc12)C(=O)N[C@H](C(=O)N[C@@H](CCCCN)C(=O)N[C@@H](CC(N)=O)C(=O)N[C@@H](CCCN=C(N)N)C(N)=O)[C@@H](C)CC)[C@@H](C)CC)[C@@H](C)O)[C@@H](C)CC)C(C)C)[C@@H](C)CC [GIGSILGVIAKGLPTLISWIKNR]	MIC [5]: 20 µM (≈ 48.1 µg/mL)
–	–	128 µM (≈ 274 µg/mL)	CC[C@H](C)[C@H](NC(=O)[C@H](CC(N)=O)NC(=O)[C@H](Cc1cnc[nH]1)NC(=O)[C@H](Cc1ccccc1)NC(=O)[C@H](CC(C)C)NC(=O)[C@H](CCSC)NC(=O)CNC(=O)[C@H](CC(C)C)NC(=O)[C@H](CCSC)NC(=O)[C@H](CCCCN)NC(=O)[C@@H](N)CC(C)C)C(=O)N[C@@H](CCCN=C(N)N)C(=O)N[C@@H](CC(N)=O)C(=O)N[C@H](C(=O)N[C@@H](CC(C)C)C(=O)N[C@@H](CCCCN)C(=O)N[C@H](C(=O)N[C@H](C(N)=O)C(C)C)[C@@H](C)O)[C@@H](C)CC [LKMLGMLFHNIRNILKTV]	MIC [5]: ≥ 64 µM; MIC [6]: 64 µM (≈ 137 µg/mL)
–	–	–	CC[C@H](C)[C@H](NC(=O)[C@H](CCCCN)NC(=O)[C@@H](N)CS)C(=O)N[C@@H](CC(N)=O)C(=O)N[C@@H](CCCCN)C(=O)N[C@@H](CCC(N)=O)C(=O)N[C@@H](CS)C(=O)O [CKINKQC]	MIC [7]: > 200 µM; MIC [8]: > 200 µM; MIC [9]: > 200 µM
13 µM (≈ 32 µg/mL)	–	–	CC[C@H](C)[C@H](NC(=O)[C@@H](NC(=O)[C@@H]1CCCN1C(=O)[C@@H](NC(=O)[C@@H]1CCCN1C(=O)[C@H](CCCCN)NC(=O)[C@H](CCCCN)NC(=O)[C@H](CO)NC(=O)CN)C(C)C)[C@@H](C)CC)C(=O)N[C@@H](Cc1ccc(O)cc1)C(=O)N[C@H]1CSSC[C@@H](C(=O)N[C@@H](CCC(N)=O)C(=O)N[C@@H](CCCN=C(N)N)C(=O)N[C@@H](CCSC)C(=O)O)NC(=O)[C@H](CCCCN)NC(=O)[C@H](C)NC(=O)[C@H]([C@@H](C)O)NC(=O)[C@H](CCCN=C(N)N)NC(=O)[C@H](CCCN=C(N)N)NC(=O)[C@H](CCC(N)=O)NC1=O [GSKKPVPIIYCQRRTAKCQRM]	MIC [10]: 13 µM (≈ 32 µg/mL)
–	–	–	CSCC[C@H](NC(=O)[C@@H](N)CO)C(=O)N[C@@H](CC(C)C)C(=O)N[C@@H](CO)C(=O)N[C@H](C(=O)N[C@@H](CC(C)C)C(=O)N[C@@H](CCCCN)C(=O)N[C@@H](CC(N)=O)C(=O)N[C@@H](CC(C)C)C(=O)NCC(=O)N[C@@H](CCCCN)C(=O)N[C@H](C(=O)NCC(=O)N[C@@H](CC(C)C)C(=O)NCC(=O)N[C@@H](Cc1ccccc1)C(=O)N[C@H](C(=O)N[C@@H](C)C(=O)O)C(C)C)C(C)C)C(C)C [SMLSVLKNLGKVGLGFVA]	MIC [7]: > 200 µM; MIC [8]: > 200 µM; MIC [9]: > 200 µM
113 µM (≈ 128 µg/mL)	14.1 µM (≈ 16 µg/mL)	> 113 µM	CC(C)C[C@H](NC(=O)[C@H](CC(C)C)NC(=O)[C@H](CCCCN)NC(=O)[C@H](CCCCN)NC(=O)[C@H](CC(C)C)NC(=O)[C@H](CCC(=O)O)NC(=O)[C@H](CCCCN)NC(=O)[C@H](CC(C)C)NC(=O)[C@@H](N)Cc1ccccc1)C(N)=O [FLKELKKLL]	MIC [1]: 113 µM (≈ 128 µg/mL)
29.1 µM (≈ 32 µg/mL)	7.26 µM (≈ 7.99 µg/mL)	29.1 µM (≈ 32 µg/mL)	CC(C)C[C@H](NC(=O)[C@H](CC(C)C)NC(=O)[C@H](CCCCN)NC(=O)[C@H](CCCCN)NC(=O)[C@H](CC(C)C)NC(=O)[C@@H](NC(=O)[C@H](CCCCN)NC(=O)[C@H](CC(C)C)NC(=O)[C@@H](N)Cc1ccccc1)C(C)C)C(N)=O [FLKVLKKLL]	MIC [1]: 29.1 µM (≈ 32 µg/mL)
> 116 µM	7.28 µM (≈ 7.99 µg/mL)	> 116 µM	CC(C)C[C@H](NC(=O)[C@H](CC(C)C)NC(=O)[C@H](CCCCN)NC(=O)[C@H](CCCCN)NC(=O)[C@H](CC(C)C)NC(=O)[C@@H]1CCCN1C(=O)[C@H](CCCCN)NC(=O)[C@H](CC(C)C)NC(=O)[C@@H](N)Cc1ccccc1)C(N)=O [FLKPLKKLL]	MIC [1]: > 116 µM
5 µM (≈ 7.65 µg/mL)	10 µM (≈ 15.3 µg/mL)	–	CC[C@H](C)[C@H](NC(=O)[C@H](CCCN=C(N)N)NC(=O)[C@H](CCC(N)=O)NC(=O)[C@@H](NC(=O)[C@H](C)NC(=O)[C@H](CCCN=C(N)N)NC(=O)[C@@H](N)CCCCN)C(C)C)C(=O)N[C@@H](CCCCN)C(=O)N[C@@H](CC(=O)O)C(=O)N[C@@H](Cc1ccccc1)C(=O)N[C@@H](CC(C)C)C(=O)N[C@@H](CCCN=C(N)N)C(=O)O [KRAVQRIKDFLR]	MIC [5]: ≥ 40 µM; MIC [11]: 20 µM (≈ 30.6 µg/mL)
–	–	6.45 µM (≈ 16 µg/mL)	CC[C@H](C)[C@H](NC(=O)[C@H](CCCN=C(N)N)NC(=O)[C@H](CCCN=C(N)N)NC(=O)[C@@H]1CCCN1C(=O)[C@H](Cc1c[nH]c2ccccc12)NC(=O)[C@H](CCCN=C(N)N)NC(=O)[C@@H]1CCCN1C(=O)[C@H](CCCN=C(N)N)NC(=O)[C@@H]1CCCN1C(=O)[C@H](CC(C)C)NC(=O)[C@H](Cc1ccc(O)cc1)NC(=O)[C@@H]1CCCN1C(=O)[C@@H]1CCCN1C(=O)[C@H](CCCCN)NC(=O)[C@H](CC(=O)O)NC(=O)[C@@H](N)C(C)C)C(=O)N[C@@H](Cc1ccc(O)cc1)C(=O)N[C@@H](CC(N)=O)C(=O)N[C@@H](CCCN=C(N)N)C(N)=O [VDKPPYLPRPRWPRRIYNR]	MIC [12]: 1.01 µM (≈ 2.5 µg/mL); MIC [13]: 12.9 µM (≈ 32 µg/mL)
47.2 µM (≈ 128 µg/mL)	–	189 µM (≈ 512 µg/mL)	CC[C@H](C)[C@H](NC(=O)CNC(=O)[C@H](CC(N)=O)NC(=O)[C@@H](NC(=O)[C@H](C)NC(=O)[C@H](CC(N)=O)NC(=O)[C@H](CC(C)C)NC(=O)[C@H](C)NC(=O)[C@H](C)NC(=O)[C@H](CCCN=C(N)N)NC(=O)CNC(=O)[C@H](C)NC(=O)[C@H](C)NC(=O)[C@H](C)NC(=O)[C@H](C)NC(=O)[C@H](CCSC)NC(=O)[C@H](CC(=O)O)NC(=O)[C@H](CCCCN)NC(=O)[C@@H](NC(=O)[C@H](CO)NC(=O)[C@H](CO)NC(=O)[C@H](Cc1c[nH]c2ccccc12)NC(=O)[C@H](CC(C)C)NC(=O)[C@@H](N)CO)[C@@H](C)CC)C(C)C)C(=O)N[C@@H](CC(C)C)C(=O)N[C@@H](CC(N)=O)C(=O)N1CCC[C@H]1C(N)=O [SLWSSIKDMAAAAGRAALNAVNGILNP]	MIC [7]: > 189 µM; MIC [14]: 189 µM (≈ 512 µg/mL)
–	4.54 µM (≈ 9.9 µg/mL)	–	CC(C)C[C@H](NC(=O)[C@H](CCCCN)NC(=O)[C@H](Cc1ccccc1)NC(=O)[C@H](CC(C)C)NC(=O)[C@H](CC(C)C)NC(=O)[C@@H]1CCCN1C(=O)[C@H](CCCCN)NC(=O)[C@H](CC(C)C)NC(=O)[C@H](CCCCN)NC(=O)[C@@H]1CCCN1C(=O)[C@H](CC(C)C)NC(=O)[C@H](CC(C)C)NC(=O)[C@H](CC(C)C)NC(=O)[C@H](CCCCN)NC(=O)[C@H](CC(C)C)NC(=O)[C@H](CC(C)C)NC(=O)[C@H](CCCCN)NC(=O)[C@@H](N)Cc1ccc(O)cc1)C(N)=O [YKLLKLLLPKLKPLLFKL]	MIC [15]: 69.1 µM (≈ 151 µg/mL); MIC [11]: 1.78 µM (≈ 3.87 µg/mL)
10 µM (≈ 27.5 µg/mL)	–	–	CC[C@H](C)[C@H](NC(=O)CN)C(=O)N[C@@H](CCCCN)C(=O)N[C@@H](CCCCN)C(=O)N[C@@H](Cc1c[nH]c2ccccc12)C(=O)N1CCC[C@H]1C(=O)N[C@@H](Cc1cnc[nH]1)C(=O)N[C@@H](CCCCN)C(=O)N1CCC[C@H]1C(=O)N[C@@H](CCCCN)C(=O)N[C@@H](CCCCN)C(=O)N[C@@H](Cc1ccccc1)C(=O)NCC(=O)N[C@@H](CCCCN)C(=O)N[C@@H](CCCCN)C(=O)N[C@@H](Cc1ccccc1)C(=O)N[C@H](C(=O)N[C@@H](CCCCN)C(=O)N[C@@H](CCCCN)C(=O)N[C@H](C(=O)N[C@@H](CCSC)C(=O)N[C@@H](CC(N)=O)C(=O)N[C@@H](CO)C(N)=O)[C@@H](C)CC)C(C)C [GIKKWPHKPKKFGKKFVKKIMNS]	MIC [6]: 5 µM (≈ 13.8 µg/mL)
